Source: US10538490B2, “Benzylaminopyridylcyclopropanecarboxylic acids, pharmaceutical compositions and uses thereof” (Boehringer Ingelheim International GmbH, priority 2016, dated 2020)

Target: human GPR40 receptor (Homo sapiens, UniProt O14842)
Experiment: IP1 accumulation measurements using the IPOne assay system
Type: cell-based
Conditions: 1321N1 cells stably expressing human GPR40 receptor, stimulation 1 h at 37° C.
Description: IP1 accumulation measurements using the IPOne assay system—1321N1 cells stably expressing human GPR40 receptor (Euroscreen, Belgium) are seeded 24 h before the assay in white 384-well plates in culture medium containing 10% FCS, 1% Na-Pyruvate and 400 μg/mL G418. IPi is assayed according to the manufacturer's description (Cisbio Bioassays, France). In brief, the assay is started by substitution of the culture medium by stimulation buffer (Hepes 10 mM, CaCl2 1 mM, MgCl2 0.5 mM, KCl 4.2 mM, NaCl 146 mM, glucose 5.5 mM and LiCl 50 mM, pH 7.4). Cells are stimulated for 1 h at 37° C., 5% CO2 by addition of the compounds that are diluted in stimulation buffer containing LiCl. Assays are stopped by adding HTRF-conjugates (IP1-d2 and Anti-IP1 cryptate Tb) and lysis buffer, provided by the manufacturer. After an incubation time of 1 h at room temperature plates are measured using an EnVision™, Perkin Elmer. The obtained fluorescence ratios at 665/615 […] are then used to calculate the pEC50 values using Assay Explorer 3.3 Software (Accelrys, Inc.) by interpolation using an IP1 reference curve and subsequent sigmoidal curve fitting allowing for a variable hill slope.

Sequence of human GPR40 receptor (O14842 whole entry): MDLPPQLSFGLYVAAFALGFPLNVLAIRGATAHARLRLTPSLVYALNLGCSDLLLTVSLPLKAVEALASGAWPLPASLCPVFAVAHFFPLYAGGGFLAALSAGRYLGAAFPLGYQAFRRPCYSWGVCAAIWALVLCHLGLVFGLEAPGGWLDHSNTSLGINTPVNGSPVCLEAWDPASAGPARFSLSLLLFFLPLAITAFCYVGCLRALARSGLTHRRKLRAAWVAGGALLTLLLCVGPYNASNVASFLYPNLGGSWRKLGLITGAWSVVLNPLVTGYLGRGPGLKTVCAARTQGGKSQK

Row | Structure (SMILES) | EC50
1 | NCc1ccc(F)c(-c2cc(CNc3ccc([C@H]4C[C@@H]4C(=O)O)cn3)c(F)cc2F)c1 [Example 3, (1S,2S)-2-{6-[(5′-Aminomethyl-4,6,2′-trifluoro-biphenyl-3-ylmethyl)-amino]-pyridin-3-yl}-cyclopropanecarboxylic Acid] | > 10000 nM
2 | Cc1cc(OCCC(C)(C)O)cc(C)c1-c1cc(CNc2ccc([C@H]3C[C@@H]3C(=O)O)cn2)ccc1C(F)(F)F [Example 5, (1S,2S)-2-(6-{[4′-(3-Hydroxy-3-methyl-butoxy)-2′,6′-dimethyl-6-trifluoromethyl-biphenyl-3-ylmethyl]-amino}-pyridin-3-yl)-cyclopropanecarboxylic Acid] | 12 nM
3 | O=C(O)[C@H]1C[C@@H]1c1ccc(NCc2ccc(C(F)(F)F)c(-c3ccc(OC(F)(F)F)cc3)c2)nc1 [Example 6, (1S,2S)-2-{6-[(4′-Trifluoromethoxy-6-trifluoromethyl-biphenyl-3-ylmethyl)-amino]-pyridin-3-yl}-cyclopropanecarboxylic Acid] | 38 nM
4 | Cc1cc(OCCCS(C)(=O)=O)cc(C)c1-c1cccc(CNc2ccc([C@H]3C[C@@H]3C(=O)O)cn2)c1 [Example 8, (1S,2S)-2-(6-{[4′-(3-Methanesulfonyl-propoxy)-2′,6′-dimethyl-biphenyl-3-ylmethyl]-amino}-pyridin-3-yl)-cyclopropanecarboxylic Acid] | 50 nM
5 | Cc1cc(-c2cnccn2)cc(C)c1-c1ccc(F)c(CNc2ccc([C@H]3C[C@@H]3C(=O)O)cn2)c1 [Example 11] | 21 nM
6 | Cc1cc(OCCCS(C)(=O)=O)cc(C)c1-c1ccc(F)c(CNc2ccc([C@H]3C[C@@H]3C(=O)O)cn2)c1 [Example 12] | > 10000 nM
7 | Cc1cc(-c2ccc(=O)n(C)c2)cc(C)c1-c1ccc(F)c(CNc2ccc([C@H]3C[C@@H]3C(=O)O)cn2)c1 [Example 13] | 17 nM
8 | Cc1cc(-c2nnn(CC(C)(C)O)n2)cc(C)c1-c1ccc(F)c(CNc2ccc([C@H]3C[C@@H]3C(=O)O)cn2)c1 [Example 14] | 11 nM
9 | Cc1cc(OCC2(O)CCSCC2)cc(C)c1-c1ccc(F)c(CNc2ccc([C@H]3C[C@@H]3C(=O)O)cn2)c1 [Example 16] | 64 nM
10 | Cc1cc(OCC(=O)O)cc(C)c1-c1ccc(F)c(CNc2ccc([C@H]3C[C@@H]3C(=O)O)cn2)c1 [Example 17] | 353 nM
11 | COc1cc(F)c(-c2ccc(F)c(CNc3ccc([C@H]4C[C@@H]4C(=O)O)cn3)c2)c(F)c1 [Example 19] | 2100 nM
12 | O=C(O)[C@H]1C[C@@H]1c1ccc(NCc2cc(-c3c(F)cccc3F)ccc2F)nc1 [Example 20] | 2300 nM
13 | O=C(O)[C@H]1C[C@@H]1c1ccc(NCc2cc(-c3c(C(F)(F)F)cccc3C(F)(F)F)ccc2F)nc1 [Example 21] | 834 nM
14 | COc1c(F)c(F)c(-c2ccc(F)c(CNc3ccc([C@H]4C[C@@H]4C(=O)O)cn3)c2)c(F)c1F [Example 22] | 477 nM
15 | N#Cc1cccc(C#N)c1-c1ccc(F)c(CNc2ccc([C@H]3C[C@@H]3C(=O)O)cn2)c1 [Example 23] | > 10000 nM
16 | O=C(O)[C@H]1C[C@@H]1c1ccc(NCc2cc(-c3ccccc3C(F)(F)F)ccc2F)nc1 [Example 24] | 204 nM
17 | Cc1cc(C(=O)O)cc(C)c1-c1ccc(F)c(CNc2ccc([C@H]3C[C@@H]3C(=O)O)cn2)c1 [Example 27] | > 10000 nM
18 | Nc1cc(F)c(-c2ccc(F)c(CNc3ccc([C@H]4C[C@@H]4C(=O)O)cn3)c2)c(F)c1 [Example 28] | 6720 nM
19 | O=C(O)[C@H]1C[C@@H]1c1ccc(NCc2cc(-c3c(F)cc(OC4CC4)cc3F)ccc2F)nc1 [Example 29] | 570 nM
20 | O=C(O)[C@H]1C[C@@H]1c1ccc(NCc2cc(-c3c(Cl)cccc3Cl)ccc2F)nc1 [Example 31] | 105 nM
21 | N#CC1(c2ccccc2-c2ccc(F)c(CNc3ccc([C@H]4C[C@@H]4C(=O)O)cn3)c2)CC1 [Example 32] | 1940 nM
22 | COc1cc(OC)c(Cl)c(-c2ccc(F)c(CNc3ccc([C@H]4C[C@@H]4C(=O)O)cn3)c2)c1Cl [Example 33] | 128 nM
23 | Cc1cc(C(N)=O)cc(C)c1-c1ccc(F)c(CNc2ccc([C@H]3C[C@@H]3C(=O)O)cn2)c1 [Example 34] | 612 nM

Row | Structure (SMILES) | EC50
24 | Cc1cc(OCC2CCOC2)cc(C)c1-c1ccc(F)c(CNc2ccc([C@H]3C[C@@H]3C(=O)O)cn2)c1 (stereo partly drawn) [Example 36] | 85 nM
25 | Cc1cc(-c2ccn(C)c(=O)c2)cc(C)c1-c1ccc(F)c(CNc2ccc([C@H]3C[C@@H]3C(=O)O)cn2)c1 [Example 44] | 32 nM
26 | Cc1cc(OCC2(C)COC2)cc(C)c1-c1ccc(F)c(CNc2ccc([C@H]3C[C@@H]3C(=O)O)cn2)c1 [Example 45] | 147 nM
27 | Cc1cc(OCC(C)(C)C#N)cc(C)c1-c1ccc(F)c(CNc2ccc([C@H]3C[C@@H]3C(=O)O)cn2)c1 [Example 46] | 96 nM
28 | Cc1cc(OCc2ccccc2)cc(C)c1-c1ccc(F)c(CNc2ccc([C@H]3C[C@@H]3C(=O)O)cn2)c1 [Example 47] | 107 nM
29 | Cc1cc(-c2ccn(C)c(=O)n2)cc(C)c1-c1ccc(F)c(CNc2ccc([C@H]3C[C@@H]3C(=O)O)cn2)c1 [Example 49] | 72 nM
30 | Cc1cc(-c2ccnn2C)cc(C)c1-c1ccc(F)c(CNc2ccc([C@H]3C[C@@H]3C(=O)O)cn2)c1 [Example 50] | 25 nM
31 | COc1cc(OC)c(F)c(-c2ccc(F)c(CNc3ccc([C@H]4C[C@@H]4C(=O)O)cn3)c2)c1F [Example 52] | 1340 nM
32 | CC(C)c1ccccc1-c1ccc(F)c(CNc2ccc([C@H]3C[C@@H]3C(=O)O)cn2)c1 [Example 54] | 317 nM
33 | Cc1cc(OCC2(O)CCS(=O)(=O)CC2)cc(C)c1-c1ccc(F)c(CNc2ccc([C@H]3C[C@@H]3C(=O)O)cn2)c1 [Example 57] | 422 nM
34 | Cc1cc(OCC2CCOCC2)cc(C)c1-c1ccc(F)c(CNc2ccc([C@H]3C[C@@H]3C(=O)O)cn2)c1 [Example 58] | 43 nM
35 | CNC(=O)c1cc(C)c(-c2ccc(F)c(CNc3ccc([C@H]4C[C@@H]4C(=O)O)cn3)c2)c(C)c1 [Example 59] | 375 nM
36 | Cc1cc(C(=O)N(C)C)cc(C)c1-c1ccc(F)c(CNc2ccc([C@H]3C[C@@H]3C(=O)O)cn2)c1 [Example 60] | 550 nM
37 | COc1cc(F)c(-c2cc(CNc3ccc([C@H]4C[C@@H]4C(=O)O)cn3)c(F)cc2F)c(F)c1 [Example 62] | 668 nM
38 | O=C(O)[C@H]1C[C@@H]1c1ccc(NCc2cc(-c3c(F)cccc3F)c(F)cc2F)nc1 [Example 63] | 931 nM
39 | COc1c(F)c(F)c(-c2cc(CNc3ccc([C@H]4C[C@@H]4C(=O)O)cn3)c(F)cc2F)c(F)c1F [Example 64] | 123 nM
40 | N#Cc1cccc(C#N)c1-c1cc(CNc2ccc([C@H]3C[C@@H]3C(=O)O)cn2)c(F)cc1F [Example 65] | > 10000 nM
41 | O=C(O)[C@H]1C[C@@H]1c1ccc(NCc2cc(-c3ccccc3C(F)(F)F)c(F)cc2F)nc1 [Example 66] | 48 nM
42 | Cc1cc(C(=O)O)cc(C)c1-c1cc(CNc2ccc([C@H]3C[C@@H]3C(=O)O)cn2)c(F)cc1F [Example 69] | 5960 nM
43 | Nc1cc(F)c(-c2cc(CNc3ccc([C@H]4C[C@@H]4C(=O)O)cn3)c(F)cc2F)c(F)c1 [Example 70] | 3630 nM
44 | O=C(O)[C@H]1C[C@@H]1c1ccc(NCc2cc(-c3c(F)cc(OC4CC4)cc3F)c(F)cc2F)nc1 [Example 71] | 140 nM
45 | COc1cc(OC)c(-c2cc(CNc3ccc([C@H]4C[C@@H]4C(=O)O)cn3)c(F)cc2F)c(OC)c1 [Example 72] | 838 nM
